Results published in ChEMBL document CHEMBL3580603, “Natural therapeutic agents for neurodegenerative diseases from a traditional herbal medicine Pongamia pinnata (L.) Pierre” (Bioorg Med Chem Lett, 2014).

Tested on: BV-2
Experiment: Anti-neuroinflammatory activity against mouse BV2 cells assessed as inhibition of LPS-induced nitric oxide production after 24 hrs by Griess assay
Type: functional, cell-based
Conditions: BV-2, 24 h
`COc1cc(OC)c(Cl)c(-c2cc(=O)c3ccc4occc4c3o2)c1Cl` gave an IC50 greater than 100 µM. With `COc1cc2occc2c2oc(-c3ccccc3)cc(=O)c12` the IC50 was 5.98 µM. Compound `COc1cccc(-c2cc(=O)c3ccc4occc4c3o2)c1` has an IC50 greater than 100 µM. Compound `COc1cc(OC)cc(-c2cc(=O)c3ccc4occc4c3o2)c1` has an IC50 greater than 100 µM. With `COc1ccc(OC)c(-c2cc(=O)c3ccc4occc4c3o2)c1` the IC50 was 87.7 µM. In the case of `COc1cc(O)cc(-c2oc3c(ccc4occc43)c(=O)c2OC)c1`, the IC50 is reported as greater than 100 µM. Compound `COc1c2ccoc2cc2oc(-c3ccc4c(c3)OCO4)cc(=O)c12` has an IC50 greater than 100 µM. With `COc1ccc2c(=O)c(OC)c(-c3cc(OC)c4c(c3)OCO4)oc2c1` the IC50 was greater than 100 µM. `COc1ccc(-c2coc3cc(OCC=C(C)C)ccc3c2=O)cc1` gave an IC50 greater than 100 µM. `COc1ccc(-c2coc3c(O)c(O)ccc3c2=O)cc1O` showed an IC50 greater than 100 µM. Compound `CC1(C)C=Cc2c(ccc(C(=O)/C=C/c3ccc4c(c3)OCO4)c2O)O1` has an IC50 of 6.56 µM. Work on `CC1(C)C=Cc2c(ccc3c2O[C@H](c2ccc4c(c2)OCO4)CC3=O)O1` yielded an IC50 of 78.8 µM. Work on `CC1(C)CC[C@]2(C(=O)O)CC[C@]3(C)[C@H](CC[C@@H]4[C@@]5(C)CC[C@H](O)C(C)(C)[C@@H]5CC[C@]43C)[C@H]2[C@H]1O` yielded an IC50 of 22.7 µM. Compound `CN1CC[C@@H](O)C[C@H]1C(=O)O` has an IC50 greater than 100 µM. `COc1ccc(-c2coc3c(OC)c(O)ccc3c2=O)cc1` gave an IC50 greater than 100 µM. In the case of `C=C(C)[C@@H]1CC[C@]2(C(=O)O)CC[C@]3(C)[C@H](CC[C@@H]4[C@@]5(C)CCC(=O)C(C)(C)[C@@H]5CC[C@]43C)[C@@H]12` [BETUNOLIC ACID], the IC50 is reported as greater than 100 µM. Work on `COc1ccc2c(=O)c(OC)c(-c3ccc4c(c3)OCO4)oc2c1` [DEMETHOXYKANUGIN] yielded an IC50 of 14.1 µM. Compound `COc1ccc2c(=O)c(OC)c(-c3ccc(OC)c(OC)c3)oc2c1` [FISETIN TETRAMETHYL ETHER] has an IC50 of 28.5 µM. `COc1ccc(-c2coc3cc(O)ccc3c2=O)cc1` [FORMONONETIN] gave an IC50 greater than 100 µM. `CC1(C)C=Cc2cc(C(=O)/C=C/c3ccccc3)c(O)cc2O1` [ISOLONCHOCARPIN] gave an IC50 greater than 100 µM. `COc1c(-c2ccccc2)oc2c(ccc3occc32)c1=O` [KARANJIN] gave an IC50 greater than 100 µM. `O=c1cc(-c2ccccc2)oc2c1ccc1occc12` [LANCEOLATIN B] showed an IC50 of 20.6 µM. Work on `CC1(C)C=Cc2c(ccc(C(=O)/C=C/c3ccccc3)c2O)O1` [LONCHOCARPIN] yielded an IC50 of 3.54 µM. `COc1c2ccoc2cc2oc(-c3ccccc3)cc(=O)c12` [PINNATIN] showed an IC50 greater than 100 µM. For `COc1c(-c2ccc3c(c2)OCO3)oc2c3c(ccc2c1=O)OC(C)(C)C=C3` [PONGACHROMENE], the IC50 was greater than 100 µM. Compound `O=c1cc(-c2ccc3c(c2)OCO3)oc2c1ccc1occc12` [PONGAGLABRONE] has an IC50 of 45.7 µM. Compound `COc1c(-c2ccc3c(c2)OCO3)oc2c(ccc3occc32)c1=O` [PONGAPIN] has an IC50 greater than 100 µM. Work on `O=c1c(-c2ccc3c(c2)OCO3)coc2cc(O)ccc12` [PSEUDOBAPTOGENIN] yielded an IC50 greater than 100 µM. `COc1ccc(-c2coc3c(O)c(OC)ccc3c2=O)cc1` [RETUSIN 7-METHYL ETHER] showed an IC50 of 50.9 µM.

Tested on: not listed separately
Experiment: Cytotoxicity against mouse BV2 cells assessed as reduction of cell viability at IC50 after 24 hrs by MTT assay
Type: cell-based
Conditions: bv-2, 24 h
In the case of `COc1cc(OC)c(Cl)c(-c2cc(=O)c3ccc4occc4c3o2)c1Cl`, the Activity is reported as “Non-toxic”. With `COc1cc2occc2c2oc(-c3ccccc3)cc(=O)c12` the Activity was “Non-toxic”. In the case of `COc1cccc(-c2cc(=O)c3ccc4occc4c3o2)c1`, the Activity is reported as “Non-toxic”. With `COc1cc(OC)cc(-c2cc(=O)c3ccc4occc4c3o2)c1` the Activity was “Non-toxic”. For `COc1ccc(OC)c(-c2cc(=O)c3ccc4occc4c3o2)c1`, the Activity was “Non-toxic”. For `COc1cc(O)cc(-c2oc3c(ccc4occc43)c(=O)c2OC)c1`, the Activity was “Non-toxic”. For `COc1c2ccoc2cc2oc(-c3ccc4c(c3)OCO4)cc(=O)c12`, the Activity was “Non-toxic”. In the case of `COc1ccc2c(=O)c(OC)c(-c3cc(OC)c4c(c3)OCO4)oc2c1`, the Activity is reported as “Non-toxic”. For `COc1ccc(-c2coc3cc(OCC=C(C)C)ccc3c2=O)cc1`, the Activity was “Non-toxic”. With `COc1ccc(-c2coc3c(O)c(O)ccc3c2=O)cc1O` the Activity was “Non-toxic”. In the case of `CC1(C)C=Cc2c(ccc(C(=O)/C=C/c3ccc4c(c3)OCO4)c2O)O1`, the Activity is reported as “Non-toxic”. With `CC1(C)C=Cc2c(ccc3c2O[C@H](c2ccc4c(c2)OCO4)CC3=O)O1` the Activity was “Non-toxic”. With `CC1(C)CC[C@]2(C(=O)O)CC[C@]3(C)[C@H](CC[C@@H]4[C@@]5(C)CC[C@H](O)C(C)(C)[C@@H]5CC[C@]43C)[C@H]2[C@H]1O` the Activity was “Non-toxic”. With `CN1CC[C@@H](O)C[C@H]1C(=O)O` the Activity was “Non-toxic”. With `COc1ccc(-c2coc3c(OC)c(O)ccc3c2=O)cc1` the Activity was “Non-toxic”. With `C=C(C)[C@@H]1CC[C@]2(C(=O)O)CC[C@]3(C)[C@H](CC[C@@H]4[C@@]5(C)CCC(=O)C(C)(C)[C@@H]5CC[C@]43C)[C@@H]12` [BETUNOLIC ACID] the Activity was “Non-toxic”. With `COc1ccc2c(=O)c(OC)c(-c3ccc4c(c3)OCO4)oc2c1` [DEMETHOXYKANUGIN] the Activity was “Non-toxic”. For `COc1ccc2c(=O)c(OC)c(-c3ccc(OC)c(OC)c3)oc2c1` [FISETIN TETRAMETHYL ETHER], the Activity was “Non-toxic”. For `COc1ccc(-c2coc3cc(O)ccc3c2=O)cc1` [FORMONONETIN], the Activity was “Non-toxic”. In the case of `CC1(C)C=Cc2cc(C(=O)/C=C/c3ccccc3)c(O)cc2O1` [ISOLONCHOCARPIN], the Activity is reported as “Non-toxic”. With `COc1c(-c2ccccc2)oc2c(ccc3occc32)c1=O` [KARANJIN] the Activity was “Non-toxic”. In the case of `O=c1cc(-c2ccccc2)oc2c1ccc1occc12` [LANCEOLATIN B], the Activity is reported as “Non-toxic”. For `CC1(C)C=Cc2c(ccc(C(=O)/C=C/c3ccccc3)c2O)O1` [LONCHOCARPIN], the Activity was “Non-toxic”. With `COc1c2ccoc2cc2oc(-c3ccccc3)cc(=O)c12` [PINNATIN] the Activity was “Non-toxic”. With `COc1c(-c2ccc3c(c2)OCO3)oc2c3c(ccc2c1=O)OC(C)(C)C=C3` [PONGACHROMENE] the Activity was “Non-toxic”. In the case of `O=c1cc(-c2ccc3c(c2)OCO3)oc2c1ccc1occc12` [PONGAGLABRONE], the Activity is reported as “Non-toxic”. In the case of `COc1c(-c2ccc3c(c2)OCO3)oc2c(ccc3occc32)c1=O` [PONGAPIN], the Activity is reported as “Non-toxic”. With `O=c1c(-c2ccc3c(c2)OCO3)coc2cc(O)ccc12` [PSEUDOBAPTOGENIN] the Activity was “Non-toxic”. In the case of `COc1ccc(-c2coc3c(O)c(OC)ccc3c2=O)cc1` [RETUSIN 7-METHYL ETHER], the Activity is reported as “Non-toxic”.
